Measured values reported in patent publication US9957271B2, “Substituted bicyclic aza-heterocycles and analogues as sirtuin modulators” (GlaxoSmithKline, LLC, priority 2012, dated 2018).

Biological target: T1, SIRT1 (Homo sapiens, UniProt Q96EB6)
T1 sequence (Q96EB6 1-747): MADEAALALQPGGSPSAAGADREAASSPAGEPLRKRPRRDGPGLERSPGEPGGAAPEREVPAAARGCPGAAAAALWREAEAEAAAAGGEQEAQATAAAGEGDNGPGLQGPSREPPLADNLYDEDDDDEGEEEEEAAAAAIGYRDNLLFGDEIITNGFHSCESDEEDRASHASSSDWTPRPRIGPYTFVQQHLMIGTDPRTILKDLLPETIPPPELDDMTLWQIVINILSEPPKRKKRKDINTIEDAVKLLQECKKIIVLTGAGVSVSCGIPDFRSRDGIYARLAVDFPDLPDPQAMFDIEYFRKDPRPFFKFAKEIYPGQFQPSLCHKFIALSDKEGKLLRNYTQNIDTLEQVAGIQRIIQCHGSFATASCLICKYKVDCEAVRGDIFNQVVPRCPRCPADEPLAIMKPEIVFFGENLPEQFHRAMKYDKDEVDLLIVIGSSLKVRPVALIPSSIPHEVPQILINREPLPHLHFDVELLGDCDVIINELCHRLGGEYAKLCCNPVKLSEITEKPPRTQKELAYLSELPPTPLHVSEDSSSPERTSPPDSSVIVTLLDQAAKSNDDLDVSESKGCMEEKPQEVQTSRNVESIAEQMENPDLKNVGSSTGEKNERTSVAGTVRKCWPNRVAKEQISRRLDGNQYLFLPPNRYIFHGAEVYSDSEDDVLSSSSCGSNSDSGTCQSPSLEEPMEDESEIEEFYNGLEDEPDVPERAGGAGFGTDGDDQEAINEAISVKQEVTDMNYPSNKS
Assay: TAMRA based mass spectrometry assay of SIRT1 activity
Format: biochemical
Settings: TAMRA peptide substrate; for TAMRA EC1.5: concentration giving 150% activation of SIRT1; for Emax: percent maximum fold activation, read-out: TAMRA % Fold Act
In short: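 Deacetylation of a biotinylated, TAMRA-tagged p53-based peptide (0.5 μM) by 10 nM His-tagged SIRT1 with 120 μM βNAD+, 25 °C for 25 min, pH 8 Tris-acetate buffer, across a compound concentration range. Quenched by formic acid and read by mass spec as product peptide or OAADPR; activity relative to DMSO reactions, nicotinamide defining maximal inhibition.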

TAMRA EC1.5	Emax [%]	Structure (SMILES)
A (EC1.5<1 μM)	≥ 350	Cc1nc2ccc(-c3ccccc3C(F)(F)F)nn2c1C(=O)Nc1cccnn1 [Compound 462, 2-methyl-N-(pyridazin-3-yl)-6-(2-(trifluoromethyl)phenyl)imidazo[1,2-b]pyridazine-3-carboxamide]
A (EC1.5<1 μM)	≥ 350	Cc1nc2ccc(-c3ccccc3C(F)(F)F)nn2c1C(=O)Nc1ccncc1F [Compound 464]
A (EC1.5<1 μM)	≥ 350	Cc1nc2ccc(-c3ccccc3C(F)(F)F)nn2c1C(=O)Nc1ccc(F)cn1 [Compound 465]
A (EC1.5<1 μM)	≥ 350	Cc1nc2c(C)cc(-c3ccccc3C(F)(F)F)nn2c1C(=O)Nc1cncc(OC[C@H](O)CO)n1 [Compound 468]
A (EC1.5<1 μM)	≥ 350	Cc1nc2ccc(-c3ccccc3OC(F)(F)F)nn2c1C(=O)Nc1cccnn1 [Compound 470]
A (EC1.5<1 μM)	≥ 350	Cc1nc2ccc(-c3ccccc3OC(F)(F)F)nn2c1C(=O)Nc1cnccn1 [Compound 471]
A (EC1.5<1 μM)	≥ 350	Cc1nc2c(C)cc(-c3ccccc3C(F)(F)F)nn2c1C(=O)Nc1ccc(F)cn1 [Compound 474]
A (EC1.5<1 μM)	≥ 350	COc1nccc(NC(=O)c2c(C)nc3ccc(-c4ccccc4C(F)(F)F)nn23)n1 [Compound 476]
A (EC1.5<1 μM)	≥ 350	COc1nccc(NC(=O)c2c(C)nc3ccc(-c4ccccc4OC(F)(F)F)nn23)n1 [Compound 477]
A (EC1.5<1 μM)	≥ 350	Cc1nc2c(C)cc(-c3ccccc3OC(F)(F)F)nn2c1C(=O)Nc1cccnn1 [Compound 479]
A (EC1.5<1 μM)	≥ 350	Cc1nc(NC(=O)c2c(C)nc3c(C)cc(-c4ccccc4OC(F)(F)F)nn23)sc1C [Compound 482]
B (EC1.5 1-25 μM)	≥ 350	O=C(Nc1cccc(N2CCOCC2)n1)c1cnc2ccc(N3CC[C@@H](F)C3)nn12 [Compound 488]
B (EC1.5 1-25 μM)	< 350	Cc1cc(C)nc(NC(=O)c2cnc3ccc(N4CC[C@@H](F)C4)nn23)c1 [Compound 491]
B (EC1.5 1-25 μM)	< 350	Cc1cc(C)nc(NC(=O)c2cnc3ccc(N4CCC(F)(F)C4)nn23)c1 [Compound 492]
A (EC1.5<1 μM)	≥ 350	Cc1cc(C)nc(NC(=O)c2c(C)nc3c(C)cc(-c4ccccc4OC(F)(F)F)nn23)c1 [Compound 493]
A (EC1.5<1 μM)	≥ 350	Cc1nc2c(C)cc(-c3ccccc3OC(F)(F)F)nn2c1C(=O)Nc1ccncc1F [Compound 494]
A (EC1.5<1 μM)	< 350	Cc1nc2c(C)cc(-c3ccccc3OC(F)(F)F)nn2c1C(=O)Nc1ccc(F)cn1 [Compound 495]
A (EC1.5<1 μM)	≥ 350	Cc1nc2ccc(-c3ccccc3OC(F)(F)F)nn2c1C(=O)Nc1ccncc1 [Compound 497]
A (EC1.5<1 μM)	≥ 350	Cc1nc2ccc(-c3ccccc3C(F)(F)F)nn2c1C(=O)Nc1ccccn1 [Compound 498]
A (EC1.5<1 μM)	≥ 350	Cc1cccc(NC(=O)c2cnn3ccc(-c4ccccc4C(F)(F)F)nc23)n1 [Compound 500]
A (EC1.5<1 μM)	≥ 350	Cc1ccnc(NC(=O)c2cnn3ccc(-c4ccccc4C(F)(F)F)nc23)c1 [Compound 501]
A (EC1.5<1 μM)	≥ 350	Cc1cc(C)nc(NC(=O)c2cnn3ccc(-c4ccccc4C(F)(F)F)nc23)c1 [Compound 502]
A (EC1.5<1 μM)	≥ 350	Cc1cc(NC(=O)c2cnn3ccc(-c4ccccc4C(F)(F)F)nc23)nc(C)n1 [Compound 503]
A (EC1.5<1 μM)	≥ 350	Cc1cc(NC(=O)c2cnn3ccc(-c4ccccc4C(F)(F)F)nc23)cc(C)n1 [Compound 504]
A (EC1.5<1 μM)	≥ 350	O=C(Nc1nccs1)c1cnn2ccc(-c3ccccc3C(F)(F)F)nc12 [Compound 506]
A (EC1.5<1 μM)	≥ 350	Cc1nc(NC(=O)c2cnn3ccc(-c4ccccc4C(F)(F)F)nc23)sc1C [Compound 509]

TAMRA EC1.5	Emax [%]	Structure (SMILES)
B (EC1.5 1-25 μM)	< 350	CN(C)[C@H]1CCN(c2ccc3ncc(C(=O)Nc4cccc(N5CCOCC5)n4)n3n2)C1 [Compound 510]
B (EC1.5 1-25 μM)	< 350	Cc1cc(C)nc(NC(=O)c2cnc3ccc(N4CC[C@H](N(C)C)C4)nn23)c1 [Compound 512]
A (EC1.5<1 μM)	≥ 350	Cc1cc(-c2ccccc2C(F)(F)F)nn2c(C(=O)Nc3ccncn3)cnc12 [Compound 515]
A (EC1.5<1 μM)	≥ 350	COc1nccc(NC(=O)c2cnn3ccc(-c4ccccc4C(F)(F)F)nc23)n1 [Compound 519]
B (EC1.5 1-25 μM)	< 350	O=C(Nc1cnn2ccc(-c3ccccc3C(F)(F)F)nc12)c1cccc(O)n1 [Compound 520]
A (EC1.5<1 μM)	≥ 350	Cc1cccc(C(=O)Nc2cnn3ccc(-c4ccccc4C(F)(F)F)nc23)n1 [Compound 522]
A (EC1.5<1 μM)	≥ 350	Cc1cnc(C(=O)Nc2cnn3ccc(-c4ccccc4C(F)(F)F)nc23)s1 [Compound 525]
A (EC1.5<1 μM)	≥ 350	Cc1nc(C(=O)Nc2cnn3ccc(-c4ccccc4C(F)(F)F)nc23)c(C)s1 [Compound 526]
A (EC1.5<1 μM)	≥ 350	Cc1cc(NC(=O)c2cnc3c(C)cc(-c4ccccc4C(F)(F)F)nn23)cc(C)n1 [Compound 528]
A (EC1.5<1 μM)	≥ 350	O=C(Nc1ccncc1)c1cnn2ccc(-c3ccccc3OC(F)(F)F)nc12 [Compound 531]
A (EC1.5<1 μM)	≥ 350	O=C(Nc1cnccn1)c1cnn2ccc(-c3ccccc3OC(F)(F)F)nc12 [Compound 532]
A (EC1.5<1 μM)	≥ 350	O=C(Nc1cccc(N2CCOCC2)n1)c1cnn2ccc(-c3ccccc3OC(F)(F)F)nc12 [Compound 534]
A (EC1.5<1 μM)	≥ 350	O=C(Nc1cccc(N2CC3(COC3)C2)n1)c1cnc2ccc(-c3ccccc3C(F)(F)F)nn12 [Compound 537]
A (EC1.5<1 μM)	≥ 350	O=C(Nc1cccc(N2CC3(CCO3)C2)n1)c1cnc2ccc(-c3ccccc3C(F)(F)F)nn12 [Compound 538]
A (EC1.5<1 μM)	≥ 350	Cc1cccc(NC(=O)c2cnc3c(C)cc(-c4ccccc4C(F)(F)F)nn23)n1 [Compound 539]
A (EC1.5<1 μM)	≥ 350	Cc1cc(NC(=O)c2cnc3c(C)cc(-c4ccccc4C(F)(F)F)nn23)ccn1 [Compound 540]
A (EC1.5<1 μM)	≥ 350	COc1nccc(NC(=O)c2c(C)nc3c(C)cc(-c4ccccc4C(F)(F)F)nn23)n1 [Compound 543]
A (EC1.5<1 μM)	≥ 350	Cc1nc2c(C)cc(-c3ccccc3C(F)(F)F)nn2c1C(=O)Nc1cccc(N2CC3(CCO3)C2)n1 [Compound 544]
A (EC1.5<1 μM)	≥ 350	Cc1cc(-c2ccccc2C(F)(F)F)nn2c(C(=O)Nc3cccc(N4CC5(COC5)C4)n3)cnc12 [Compound 546]
A (EC1.5<1 μM)	≥ 350	Cc1nn2ccc(-c3ccccc3C(F)(F)F)nc2c1C(=O)Nc1ccncn1 [Compound 547]
A (EC1.5<1 μM)	≥ 350	Cc1nn2ccc(-c3ccccc3C(F)(F)F)nc2c1C(=O)Nc1ccccn1 [Compound 548]
A (EC1.5<1 μM)	≥ 350	Cc1nn2ccc(-c3ccccc3C(F)(F)F)nc2c1C(=O)Nc1cccc(CN2CCOCC2)n1 [Compound 550]
A (EC1.5<1 μM)	≥ 350	O=C(Nc1cccc(OC[C@H](O)CO)n1)c1cnc2ccc(-c3ccccc3C(F)(F)F)nn12 [Compound 553]
A (EC1.5<1 μM)	≥ 350	O=C(Nc1cccc(OC[C@@H](O)CO)n1)c1cnc2ccc(-c3ccccc3C(F)(F)F)nn12 [Compound 554]
A (EC1.5<1 μM)	≥ 350	O=C(Nc1cncc(OC[C@@H](O)CO)n1)c1cnc2ccc(-c3ccccc3C(F)(F)F)nn12 [Compound 556, (S)-N-(6-(2,3-dihydroxypropoxy)pyrazin-2-yl)-6-(2-(trifluoromethyl)phenyl)imidazo[1,2-b]pyridazine-3-carboxamide]
